From patent publication US7915293B2, “Ubiquitin ligase inhibitors” (Rigel Pharmaceuticals, Inc., priority 2003, dated 2011)

Experiments:
Design in all cases: key: “+” indicates that the compound exibits inhibitory activity; “−” indicates that low or no inhibitory activity was observed
[1] = target: E3 (His-APC11/APC2-"APC") (Homo sapiens, UniProt Q9NYG5+Q9UJX6); test: Plate-based E3 ligase assay (APC FLAG), auto-ubiquitination; assay type: biochemical; conditions: 8 concentrations tested
Outline: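 His-APC11/APC2 auto-ubiquitination was run in casein-blocked nickel plates for 1 h at room temperature, with E1 at 5 ng/well, UbcH5c at 20 ng/well and APC at 100 ng/well. Buffer was 62.5 mM Tris pH 7.6, 3 mM MgCl2, 1 mM DTT, 2.5 mM ATP and Flag-ubiquitin at 100 ng/well. Detection used anti-Flag/HRP chemiluminescence, and IC50 was typically from 6 or 8 concentrations versus a DMSO control.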

HCT116 cells [2] = test: Cell proliferation assay, photographic image analysis of proliferation, apoptosis and death (PAD assay), HCT116; assay type: cell-based; conditions: 6 concentrations tested
Procedure: (§1) A549 (ATCC# CCL-185), HeLa (ATCC# CCL-2), HCT116 (ATCC# CCL-247), and H1299 (ATCC# CRL-5803) cells were maintained in T175 flasks following the ATCC recommended media and handling procedures. Flasks reaching approximately 70% confluency were trypsinized and resuspended in RPMI media (Cell-Gro catalog number 10-040-CM) modified to contain 5% FBS, 100 ug/mlPen/Strep (Cell-Gro catalog number 30-002-CL), and 0.3 mg/ml L-Glutamine (Cell-Gro catalog number 25-003-CL). A 20,000 cells/ml solution was made for plating. Cells were plated in black Packard 96 well plates by placing 100 μl per well (2,000 cells per well).
(§2) Compounds and additional media were added 24 hours after cell plating. A compound master plate was created with concentrations 500 times greater than the final concentration added to the cells. All compound testing was done in duplicate using 6.3 fold dilutions starting with 10 mM. All outside wells (and 4 internal wells) were DMSO controls. Taxol and at least one additional control were run on all plates. Three microliters of the compound master plate were added to deep well blocks containing 750 μl of RPMI media. One hundred microliters were transferred from the compound/media deep well blocks to the plated cells resulting in a 500 fold dilution of the compounds. Cells were grown at 37° C., 5% CO2 for 48 hours.
Cells to be analyzed by photography were fixed and stained. One hundred microliters of media were removed and 100 μl of 9.3% […] was added to each well. Plates were left on the benchtop for 45 minutes. A staining solution containing 1.55 μl of 1 mg/ml DAPI added to 18.75 ml PBS was warmed for 15 minutes at 37° C. The cells were aspirated prior to washing with 100 μl of PBS. Seventy microliters of PBS were aspirated and 170 μl of the DAPI solution were added to each well of fixed cells. Plates were left at room temperature for one hour then aspirated and washed twice with 100 μl of PBS. The stained cells were left at 4° C. for a minimum of 16 hours before photographic analysis with Array Scan II (Cellomics). Analysis of the photographic images to determine numbers of live cells (proliferation), apoptotic cells and dead cells, were according to the methods described in U.S. Provisional Patent Application Ser. No. 60/406,714, which incorporated herein in its entirety.

A549 cells [3] = test: Cell proliferation assay, photographic image analysis of proliferation, apoptosis and death (PAD assay), A549; assay type: cell-based; conditions: 6 concentrations tested
Outline: (§3)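 Cells grown in RPMI with 5% FBS (2,000/well) and dosed 24 h after plating with 6.3-fold dilutions in duplicate (master plate 500× final, top 10 mM stock). After 48 h at 37 °C, cells formamide-fixed and DAPI-stained. Image analysis counted live, apoptotic and dead cells.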

HeLa cells [4] = test: Cell proliferation assay, photographic image analysis of proliferation, apoptosis and death (PAD assay), HeLa; assay type: cell-based; conditions: 6 concentrations tested
Outline: as §3

HeLa cells [5] = test: Non-photographic proliferation analysis (Promega Cell titer Aqueous), HeLa; assay type: cell-based; conditions: 6 concentrations tested
Procedure: as §1, §2
(§4) Some cell plates were treated with Promega Cell titer Aqueous 1 kit (promega—VWR catalog number G3580). In this case, 48 hours after the test compound were added, 100 μl of media were removed and 20 μl of cell titer reagent were added to all wells. Plates were incubated at 37° C. for 45 minutes prior to absorbance reads on the Wallac plate reader at 490 nm for 0.1 sec/well.

HCT116 cells [6] = test: Non-photographic proliferation analysis (Promega Cell titer Aqueous), HCT116; assay type: cell-based; conditions: 6 concentrations tested
Procedure: as §1, §2, §4

A549 cells [7] = test: Non-photographic proliferation analysis (Promega Cell titer Aqueous), A549; assay type: cell-based; conditions: 6 concentrations tested
Procedure: as §1, §2, §4

Sequence of E3 (His-APC11/APC2-"APC") (Q9NYG5 whole entry): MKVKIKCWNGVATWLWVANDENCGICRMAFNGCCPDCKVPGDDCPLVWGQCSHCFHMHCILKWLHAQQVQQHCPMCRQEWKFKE
Sequence of E3 (His-APC11/APC2-"APC") (Q9UJX6 whole entry): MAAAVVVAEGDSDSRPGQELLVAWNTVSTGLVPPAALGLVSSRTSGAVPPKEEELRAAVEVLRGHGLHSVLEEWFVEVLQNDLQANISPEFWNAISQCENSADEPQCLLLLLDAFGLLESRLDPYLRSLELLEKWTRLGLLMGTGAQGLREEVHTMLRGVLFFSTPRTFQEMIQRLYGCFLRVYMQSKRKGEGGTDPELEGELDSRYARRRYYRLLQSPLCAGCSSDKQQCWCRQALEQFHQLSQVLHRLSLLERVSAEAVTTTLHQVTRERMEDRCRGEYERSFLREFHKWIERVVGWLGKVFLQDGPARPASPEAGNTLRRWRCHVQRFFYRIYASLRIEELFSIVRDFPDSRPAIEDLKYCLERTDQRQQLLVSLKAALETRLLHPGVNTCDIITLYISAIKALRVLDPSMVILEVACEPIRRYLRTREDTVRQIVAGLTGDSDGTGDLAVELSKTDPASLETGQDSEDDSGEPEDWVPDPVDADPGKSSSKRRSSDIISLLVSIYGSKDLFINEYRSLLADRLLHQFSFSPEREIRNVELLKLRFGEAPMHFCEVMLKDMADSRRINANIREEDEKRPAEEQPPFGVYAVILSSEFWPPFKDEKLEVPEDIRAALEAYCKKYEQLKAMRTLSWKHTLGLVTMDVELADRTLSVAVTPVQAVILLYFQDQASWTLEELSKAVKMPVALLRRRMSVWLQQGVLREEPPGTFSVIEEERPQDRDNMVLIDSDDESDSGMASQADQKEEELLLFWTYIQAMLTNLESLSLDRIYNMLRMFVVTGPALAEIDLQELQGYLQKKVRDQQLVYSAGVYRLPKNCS

O=S(=O)(Nc1ccc(C(F)(F)F)cc1Cl)c1ccc(Oc2ncc(C(F)(F)F)cc2Cl)cc1 [Example 255, N-[2-chloro-4-(trifluoromethyl)phenyl]-4-{[3-chloro-5-(trifluoromethyl)pyridin-2-yl]oxy}benzenesulfonamide]
APC Flag 8 pt [1]: + | PAD Assay, HCT116 6 pt (HCT116 cells [2]): + | PAD Assay, A549 6 pt (A549 cells [3]): + | PAD Assay, HELA 6 pt (HeLa cells [4]): +

O=[N+]([O-])c1ccc(Oc2c(Cl)cc(S(=O)(=O)Nc3ccc(F)c(Cl)c3)cc2Cl)c(Cl)c1 [Example 16, 3,5-dichloro-N-(3-chloro-4-fluorophenyl)-4-(2-chloro-4-nitrophenoxy)benzene-sulfonamide]
APC Flag 8 pt [1]: + | Cell Titer-Aqueous, HELA 6 pt (HeLa cells [5]): + | PAD Assay, A549 6 pt (A549 cells [3]): − | Cell Titer-Aqueous, HCT116 6 pt (HCT116 cells [6]): + | Cell Titer-Aqueous, A549 6 pt (A549 cells [7]): +

Cc1ccc(NS(=O)(=O)c2cc(Cl)c(Oc3ccc([N+](=O)[O-])cc3Cl)c(Cl)c2)c(Cl)c1 [Example 251, 3,5-dichloro-N-(2-chloro-4-methylphenyl)-4-(2-chloro-4-nitrophenoxy)benzene-sulfonamide]
APC Flag 8 pt [1]: + | PAD Assay, HCT116 6 pt (HCT116 cells [2]): + | PAD Assay, A549 6 pt (A549 cells [3]): + | PAD Assay, HELA 6 pt (HeLa cells [4]): +

CS/C(=N\S(=O)(=O)c1cc(Cl)c(Oc2ccc([N+](=O)[O-])cc2Cl)c(Cl)c1)Nc1ccc(Cl)cc1 [Example 149, methyl N-(4-chlorophenyl)-N′-{[3,5-dichloro-4-(2-chloro-4-nitrophenoxy)phenyl]sulfonyl} imidothiocarbamate]
APC Flag 8 pt [1]: + | Cell Titer-Aqueous, HELA 6 pt (HeLa cells [5]): + | PAD Assay, A549 6 pt (A549 cells [3]): + | PAD Assay, HELA 6 pt (HeLa cells [4]): + | Cell Titer-Aqueous, HCT116 6 pt (HCT116 cells [6]): + | Cell Titer-Aqueous, A549 6 pt (A549 cells [7]): +

O=[N+]([O-])c1ccc(Oc2c(Cl)cc(S(=O)(=O)Nc3cccc(Br)c3)cc2Cl)c(Cl)c1 [Example 159, N-(3-bromophenyl)-3,5-dichloro-4-(2-chloro-4-nitrophenoxy)benzenesulfonamide]
APC Flag 8 pt [1]: + | Cell Titer-Aqueous, HELA 6 pt (HeLa cells [5]): + | PAD Assay, A549 6 pt (A549 cells [3]): + | PAD Assay, HELA 6 pt (HeLa cells [4]): + | Cell Titer-Aqueous, A549 6 pt (A549 cells [7]): +

O=[N+]([O-])c1ccc(Oc2c(Cl)cc(S(=O)(=O)Nc3cccc4cc[nH]c34)cc2Cl)c(Cl)c1 [Example 168, 3,5-dichloro-4-(2-chloro-4-nitrophenoxy)-N-1H-indol-7-ylbenzenesulfonamide]
APC Flag 8 pt [1]: + | Cell Titer-Aqueous, HELA 6 pt (HeLa cells [5]): + | PAD Assay, A549 6 pt (A549 cells [3]): + | PAD Assay, HELA 6 pt (HeLa cells [4]): + | Cell Titer-Aqueous, A549 6 pt (A549 cells [7]): +

O=[N+]([O-])c1ccc(Oc2c(Cl)cc(S(=O)(=O)Nc3ccsc3)cc2Cl)c(Cl)c1 [Example 165, 3,5-dichloro-4-(2-chloro-4-nitrophenoxy)-N-3-thienylbenzenesulfonamide]
APC Flag 8 pt [1]: + | Cell Titer-Aqueous, HELA 6 pt (HeLa cells [5]): + | PAD Assay, A549 6 pt (A549 cells [3]): + | PAD Assay, HELA 6 pt (HeLa cells [4]): + | Cell Titer-Aqueous, A549 6 pt (A549 cells [7]): +

O=[N+]([O-])c1ccc(Oc2c(Cl)cc(S(=O)(=O)Nc3ccccc3-n3cccc3)cc2Cl)c(Cl)c1 [Example 285, 3,5-dichloro-4-(2-chloro-4-nitrophenoxy)-N-[2-(1H-pyRRol-1-yl)phenyl]benzene-sulfonamide]
APC Flag 8 pt [1]: + | PAD Assay, HCT116 6 pt (HCT116 cells [2]): + | PAD Assay, A549 6 pt (A549 cells [3]): + | PAD Assay, HELA 6 pt (HeLa cells [4]): +

Cc1cccc(C(C)C)c1NS(=O)(=O)c1cc(Cl)c(Oc2ccc([N+](=O)[O-])cc2Cl)c(Cl)c1 [Example 160, 3,5-dichloro-4-(2-chloro-4-nitrophenoxy)-N-(2-isopropyl-6-methylphenyl)benzene-sulfonamide]
APC Flag 8 pt [1]: + | Cell Titer-Aqueous, HELA 6 pt (HeLa cells [5]): + | PAD Assay, A549 6 pt (A549 cells [3]): + | PAD Assay, HELA 6 pt (HeLa cells [4]): + | Cell Titer-Aqueous, A549 6 pt (A549 cells [7]): +

CC1CCCC(C)N1S(=O)(=O)c1cc(Cl)c(Oc2ccc([N+](=O)[O-])cc2Cl)c(Cl)c1 (stereo not drawn) [Example 140, 1-{[3,5-dichloro-4-(2-chloro-4-nitrophenoxy)phenyl]sulfonyl}-2,6-dimethylpiperidine]
APC Flag 8 pt [1]: + | Cell Titer-Aqueous, HELA 6 pt (HeLa cells [5]): − | Cell Titer-Aqueous, HCT116 6 pt (HCT116 cells [6]): − | Cell Titer-Aqueous, A549 6 pt (A549 cells [7]): −

Cc1c(Cl)cccc1NS(=O)(=O)c1cc(Cl)c(Oc2ccc([N+](=O)[O-])cc2Cl)c(Cl)c1 [Example 147, 3,5-dichloro-N-(3-chloro-2-methylphenyl)-4-(2-chloro-4-nitrophenoxy)benzene-sulfonamide]
APC Flag 8 pt [1]: + | Cell Titer-Aqueous, HELA 6 pt (HeLa cells [5]): + | PAD Assay, A549 6 pt (A549 cells [3]): + | PAD Assay, HELA 6 pt (HeLa cells [4]): + | Cell Titer-Aqueous, HCT116 6 pt (HCT116 cells [6]): + | Cell Titer-Aqueous, A549 6 pt (A549 cells [7]): +

O=[N+]([O-])c1ccc(Oc2c(Cl)cc(S(=O)(=O)Nc3ccc(F)cc3I)cc2Cl)c(Cl)c1 [Example 226, 3,5-dichloro-4-(2-chloro-4-nitrophenoxy)-N-(4-fluoro-2-iodophenyl)benzenesulfonamide]
APC Flag 8 pt [1]: + | PAD Assay, HCT116 6 pt (HCT116 cells [2]): + | PAD Assay, A549 6 pt (A549 cells [3]): + | PAD Assay, HELA 6 pt (HeLa cells [4]): +

O=[N+]([O-])c1ccc(Oc2c(Cl)cc(S(=O)(=O)Nc3ccccc3I)cc2Cl)c(Cl)c1 [Compound 209]
APC Flag 8 pt [1]: + | Cell Titer-Aqueous, HELA 6 pt (HeLa cells [5]): + | PAD Assay, A549 6 pt (A549 cells [3]): + | PAD Assay, HELA 6 pt (HeLa cells [4]): + | Cell Titer-Aqueous, A549 6 pt (A549 cells [7]): +

O=C1Nc2cc(NS(=O)(=O)c3cc(Cl)c(Oc4ccc([N+](=O)[O-])cc4Cl)c(Cl)c3)ccc2OC1(F)F [Example 214, 3,5-dichloro-4-(2-chloro-4-nitrophenoxy)-N-(2,2-difluoro-3-oxo-3,4-dihydro-2H-1,4-benzoxazin-6-yl)benzenesulfonamide]
APC Flag 8 pt [1]: + | Cell Titer-Aqueous, HELA 6 pt (HeLa cells [5]): + | PAD Assay, A549 6 pt (A549 cells [3]): + | PAD Assay, HELA 6 pt (HeLa cells [4]): + | Cell Titer-Aqueous, A549 6 pt (A549 cells [7]): −

O=[N+]([O-])c1ccc(Oc2c(Cl)cc(S(=O)(=O)Nc3cccc4cccnc34)cc2Cl)c(Cl)c1 [Example 219, 3,5-dichloro-4-(2-chloro-4-nitrophenoxy)-N-quinolin-8-ylbenzenesulfonamide]
APC Flag 8 pt [1]: + | PAD Assay, HCT116 6 pt (HCT116 cells [2]): + | Cell Titer-Aqueous, HELA 6 pt (HeLa cells [5]): + | PAD Assay, A549 6 pt (A549 cells [3]): + | PAD Assay, HELA 6 pt (HeLa cells [4]): + | Cell Titer-Aqueous, A549 6 pt (A549 cells [7]): +

Cc1cccc(C)c1N(S(=O)(=O)c1cc(Cl)c(Oc2ccc([N+](=O)[O-])cc2Cl)c(Cl)c1)S(=O)(=O)c1cc(Cl)c(Oc2ccc([N+](=O)[O-])cc2Cl)c(Cl)c1 [Example 145, 3,5-dichloro-4-(2-chloro-4-nitrophenoxy)-N-(2,6-dimethylphenyl)-N-(1,3-dichloro-2-(2-chloro-4-nitrophenoxy)5-sulfonylbenzene)benzenesulfonamide]
APC Flag 8 pt [1]: + | Cell Titer-Aqueous, HELA 6 pt (HeLa cells [5]): − | Cell Titer-Aqueous, HCT116 6 pt (HCT116 cells [6]): − | Cell Titer-Aqueous, A549 6 pt (A549 cells [7]): −

O=[N+]([O-])c1ccc(Oc2c(Cl)cc(S(=O)(=O)Nc3ccccc3C(F)(F)F)cc2Cl)c(Cl)c1 [Example 230, 3,5-dichloro-4-(2-chloro-4-nitrophenoxy)-N-[2-(trifluoromethyl)phenyl]benzene-sulfonamide]
APC Flag 8 pt [1]: + | PAD Assay, HCT116 6 pt (HCT116 cells [2]): + | PAD Assay, A549 6 pt (A549 cells [3]): + | PAD Assay, HELA 6 pt (HeLa cells [4]): +
